Source: patent US11421001B2, “Template-fixed peptidomimetics” (UNIVERSITAET ZUERICH, priority 2007, dated 2022)
Positions of bridges follow the written chain, without caps; N, C: chain ends. Non-standard residues stand in square brackets, D forms with d. Residues, ends and D or L forms follow the SMILES beside them. Dab = NCC[C@H](N)C(=O)O

Assays:
[1] = Plasma stability, rat plasma; format: in vitro ADME; details: read-out: Stability rat Plasma t1/2
[2] = system: hematopoietic progenitors (CFU-GM); assay: Stem cell mobilisation, mice model (CFU-GM); format: in vivo, mouse; details: C3H/HeJ mice, 5 mg/kg s.c.
Text: The aim of the study was to evaluate the ability of the compound of Example 1 and Example 2 to mobilize hematopoietic progenitors from mouse bone marrow to peripheral blood using in-vitro hematopoietic colony assays. In humans, accurate information about progenitor cell mobilization is provided by the colony forming unit granulocyte-monocyte (CFU-GM) assay or by determining the abundance of CD34(+) cells by FACS analysis (see ref. 10 below). In mice, CD34 is not a useful marker for stem cells; instead the CFU-GM is more commonly used (see ref. 11 below).
In order to assess the ability of the compounds of Example 1 and Example 2 to mobilize murine stem cells (CFU-GM) C3H/HeJ female mice (Jackson Laboratory) were injected s.c. with 5 mg/k, of the compounds of Example 1 and of Example 2 and as reference AMD3100 (Broxmeyer, et al, J Exp Med 201, 1307-1318), (currently undergoing Phase III clinical trials) for stem cell mobilisation. Peripheral blood samples from 5 animals per test group were collected at each time point and nucleated cell counts performed as standard assays.

[3] = Plasma stability, human plasma; format: in vitro ADME; details: read-out: Stability human Plasma t1/2
[4] = Maximum tolerated dose in mice; format: in vivo, mouse; details: CD1 mice, 120 mg/kg bolus, i.v, ip and sc.
Protocol: 3.1. Maximum Tolerated Dose in Mice
a) The compound of Example 1, dispersed in Water for Injection or 0.9% physiological saline), was administered, in the preliminary study, by i.v. injection at dose levels of 35, 50, 70, 85, 100, 150, 250 or 500 mg/kg to groups consisting of one male and one female mouse (Crl:CD1(ICR)). In addition, two groups comprising two male and two female mice received dose levels of 90 and 100 mg/kg, respectively, and the 50 mg/kg dose level was repeated in a group comprising one male and one female.
b) Maximum tolerated dose studies (MTD) carried out with the compound of Example 2 using CD1 mice (3 mice/group) and was performed using i.v, ip and sc. administration.

[5] = system: CCRF-CEM cells, gradient of SDF-1; assay: Chemotactic assay (cell migration assay); format: cell-based; details: 1 nM SDF-1, 4 hours
Protocol: 2.7. Chemotactic Assay (Cell Migration Assay)
The chemotactic response of CCRF-CEM cells to a gradient of stromal cell-derived factor 1α (SDF-1) was measured using disposable assay plates from Neuroprobe (5μ pore size) (Gaithersburg, Md.), according to the manufacturer's directions and references therein [especially ref. 8, below]. Briefly, one […] flask was washed once with Dubecco's phosphate buffered saline (DPBS), and trypsinized for 10 minutes or until cells had lifted. The trypsin was neutralized by the addition of fresh medium containing serum and the cells were pelleted, washed once in DPBS, and resuspended at 1-0.5×10^7 cells/ml in RPMI+0.5% bovine serum albumin (BSA). 45 μl of cell suspension were mixed with 5 μl of 10-fold concentrated PEM peptide diluted in the same assay medium. 35 μl of this mixture were applied to the top of the assay filter. […] The optical absorbance at 595 nm (ABS595) was read using a Tecan Genios plate reader with Magellan software. The number of cells migrated was determined by comparing ABS595 values against a standard curve generated with a known number of cells in the assay plate and were plotted against SDF-1 concentration to obtain a sigmoidal curve and to determine the IC50 values. The values for IC50 were determined using the Trendline function in Microsoft Excel by fitting a logarithmic curve to the averaged datapoints.

[6] = Cytotoxicity assay (MTT reduction); format: cell-based; details: human, HELA cells (Acc57), peptides at 12.5, 25 and 50 μM, trend line, read-out: Cyto-toxicity LC50/GI50 Hela cells
Protocol: The cytotoxicity of the peptides to HELA cells (Acc57) and COS-7 cells (CRL-1651) was determined using the MTT reduction assay [see ref. 6 and 7, below]. Briefly the method was as follows: HELA cells and COS-7 cells were seeded at 7.0×10^3 and, respectively, 4.5×10^3 cells per well and grown in 96-well microtiter plates for 24 hours at 37° C. at 5% CO2. At this point, time zero (Tz) was determined by MTT reduction (see below). The supernatant of the remaining wells was discarded, and fresh medium and the peptides in serial dilutions of 12.5, 25 and 50 μM were pipetted into the wells. Each peptide concentration was assayed in triplicate. Incubation of the cells was continued for 48 hours at 37° C. at 5% CO2. Wells were then washed once with PBS and subsequently 100 μl MTT reagent (0.5 mg/mL in medium RPMI1640 and, respectively, DMEM) was added to the wells. This was incubated at 37° C. for 2 hours and subsequently the medium was aspirated and 100 μl isopropanol was added to each well. The absorbance at 595 nm of the solubilized product was measured (OD595peptide). For each concentration averages were calculated from triplicates. The percentage of growth was calculated as follows: (OD595peptide−OD595Tz−OD595Empty well)/(OD595Tz−OD595Empty well)×100% and was plotted for each peptide concentration. […]

What does the source list for `C[C@@H]1NC(=O)[C@H](CO)NC(=O)[C@@H]2CSSC[C@H](NC(=O)[C@H](Cc3ccc(O)cc3)NC(=O)[C@H](CCCNC(=N)N)NC(=O)[C@H](CCN)NC(=O)[C@H]3CCCN3C1=O)C(=O)N[C@@H](Cc1ccc(O)cc1)C(=O)N[C@@H](CCC(N)=O)C(=O)N[C@@H](CCCCN)C(=O)N1CCC[C@@H]1C(=O)N1CCC[C@H]1C(=O)N[C@@H](Cc1ccc(O)cc1)C(=O)N[C@@H](Cc1c[nH]cn1)C(=O)N[C@@H](Cc1ccc(O)cc1)C(=O)N2` [Example 2] (cyclo(YHYCSA[dP][Dab]RYCYQK[dP]P); disulfide 4-11)?
half-life at 10 µM [1]: > 5 h; time of maximal effect on CFU-GM blood cell numbers [2]: 240 min; effect on CFU-GM blood cell numbers / progenitors over time ([2]; compared to control mice): increased the CFU-GM blood cell numbers up to six hours post administration; half-life at 10 µM [3]: > 5 h; survival at highest dose tested [4]: all animals survived; symptoms at highest dose tested [4]: only mild symptoms were observed; IC50 [5]: 0.5 µM; CC50 at 48 h [6]: 94 µM
